Results from US20090012085A1, “DOSAGE FORMS AND METHODS OF TREATMENT USING A TYROSINE KINASE INHIBITOR” (priority 2005, published 2009).

How the values were obtained:
[1] = test system: solid and hematopoietic cancer xenograft models; conditions: diverse preclinical solid and hematopoietic cancer xenograft models; cited from earlier work
solid tumor malignancies = experiment: Efficacy study in humans with solid tumors (RECIST, CT scan or MRI); assay type: in vivo, human; design: key to Response time and response: PR means partial response; CR means complete response
Text: Complete Response (CR), as used herein, unless otherwise indicated, refers to disappearance of all measurable and nonmeasurable lesions and no appearance of new lesions in a patient under the treatment of compound of formula 1, its pharmaceutically acceptable salt or solvate thereof, or a mixture thereof.
Partial Response (PR), as used herein, unless other wise indicated, refers to at least a 30% decrease in the sum of the LDs of target lesions (taking as reference the baseline sum), without progression of nontarget lesions and no appearance of new lesions in a patient under treatment of compound of formula 1, its pharmaceutically acceptable salt or solvate thereof, or a mixture thereof.
50 patients were treated under a dose-escalating multicenter study of patients with solid tumor malignancies not amenable to conventional therapies. The types of tumor malignancies that the patients had included colorectal carcinoma, renal cell carcinoma, esophageal carcinoma, thymus carcinoma, mastocytosis, lung cancer and multiple endocrine neoplasia type II and other malignances. Patients were treated in cohorts of 6 with escalating QD (once per day) doses of a maleate salt of a compound of formula 1. Each study cycle was a five week cycle consisting of 4 weeks of treatment followed by 1 week of rest (4/1 schedule) or a five week cycle of continuous dosing without any rest period.
Of these 50 patients, all patients were evaluated for efficacy determinations. Tumor size was measured at the end of each cycle of treatment. […] The partial response of four of these seven patients was confirmed by a repeat assessment four weeks later. The partial response of the other three patients has not been confirmed. The tumor shrinkage was determined by either CT scan or MRI as per RECIST criteria.

Structure (SMILES): Cc1[nH]c(/C=C2\C(=O)Nc3ccc(F)cc32)c(C)c1C(=O)NC[C@H](O)CN1CCOCC1 [compound 1, 5-[(Z)-(5-fluoro-2-oxo-1,2-dihydro-3H-indol-3-ylidene)methyl]-N-[(2S)-2-hydroxy-3-morpholin-4-ylpropyl]-2,4-dimethyl-1H-pyrrole-3-carboxamide]
- anti-tumor activity [1]: has anti-tumor activity
- Response time and response (solid tumor malignancies; Patient 1, Renal cell carcinoma, 50 mg 4/1 QD, after 2nd cycle): PR
- Response time and response (solid tumor malignancies; Patient 1, Renal cell carcinoma, 50 mg 4/1 QD, at cycle 5): CR
- Response time and response (solid tumor malignancies; Patient 2, Biliary cell Carcinoma, 100 mg 4/1 QD, at cycle 5, confirmed): PR at cycle 5, confirmed.
- Response time and response (solid tumor malignancies; Patient 3, Thyroid carcinoma, 150 mg QD 4/1, after 1st cycle, confirmed): PR after 1st cycle,
- Response time and response (solid tumor malignancies; Patient 4, Colon adenocarcinoma, 150 mg QD 4/1, after 1st cycle, not confirmed): PR after 1st cycle, not
- Response time and response (solid tumor malignancies; Patient 5, Renal cell carcinoma, 250 mg QD 4/1, after 1st cycle, confirmed): PR after 1st cycle,
- Response time and response (solid tumor malignancies; Patient 6, Alveolar soft tissue carcinoma, cycle 1 250 mg QD 4/1, cycle 2 and beyond 200 mg QD 4/1, not confirmed): PR, not confirmed
- Response time and response (solid tumor malignancies; Patient 7, Renal cell carcinoma, 150 mg continuous, after 1st cycle, not confirmed): PR after 1st cycle, not
- Response time and response (solid tumor malignancies; Patient 8, Thymoma, cycle 1 150 mg continuous, cycle 2 and beyond 100 mg continuous, not confirmed): PR, not confirmed.
- patients showing complete response (solid tumor malignancies; among the 50 patients): 1 patient
- patients showing partial response (solid tumor malignancies; among the 50 patients): 7 patients
- partial responses confirmed by a repeat assessment four weeks later (solid tumor malignancies; of the seven patients with partial response): four
